{"source": "patent US20090054376A1", "about": "“BENZOFURAN DERIVATIVES WITH THERAPEUTIC ACTIVITIES” (Pharmos Corporation, priority 2005, published 2009)", "key": {"[1]": {"system": "visceral pain writhing responses", "assay": "Visceral pain, acetic acid induced writhing responses", "assay_type": "in vivo, Male ICR mice", "details": "for inhibition in vivo at 2 mg/kg: Mus musculus, iv, read-out: Percent Inhibition of Visceral Pain Writhing Responses; for inhibition in vivo at 2 mg/kg / Percent Inhibition of Visceral Pain Writhing Responses: single dose 2 mg/kg i.v., compared to untreated group"}, "[2]": {"system": "oxazolone induced DTH, ear thickness", "assay": "Oxazolone induced delayed type hypersensitivity", "assay_type": "in vivo, Male ICR mice", "details": "for decrease in ΔThickness, inhibition as compared to untreated animals: day one after challenge", "description": "Male ICR mice (average body weight 20-25 g, Harlan, Israel) were anesthetized using a mixture of 35 mg/kg ketamine and 8 mg/kg xylazine. The abdomen of the sedated animals was shaved, and the animals were sensitized by topical application of 2% oxazolone in acetone:sesame oil (4:1 volume per volume), 100 μl to the shaved abdomen and 5 μl to each paw. Five days later, the sensitized mice were anesthetized again and their right ear was challenged with 10 μl of 1% oxazolone. Immediately before this challenge, vehicle (5 ml/kg) or test compounds were administered i.v. Each treatment group comprised at least 5 animals. The ear thickness was measured 24 and 48 hours following challenge using a micrometer. The difference in ear thickness (ΔThickness) between the challenged and non-challenged ear was calculated. The average ΔThickness and SEM were calculated on each day following challenge (baseline) for all treatment groups."}, "Human CB1 Receptor": {"molecular_target": "T1, Human CB1 Receptor (Homo sapiens, UniProt P21554)", "T1 construct": "expressed in transfected cells; host or cells: HEK-293 cells (membranes)", "T1 sequence (P21554 whole entry)": "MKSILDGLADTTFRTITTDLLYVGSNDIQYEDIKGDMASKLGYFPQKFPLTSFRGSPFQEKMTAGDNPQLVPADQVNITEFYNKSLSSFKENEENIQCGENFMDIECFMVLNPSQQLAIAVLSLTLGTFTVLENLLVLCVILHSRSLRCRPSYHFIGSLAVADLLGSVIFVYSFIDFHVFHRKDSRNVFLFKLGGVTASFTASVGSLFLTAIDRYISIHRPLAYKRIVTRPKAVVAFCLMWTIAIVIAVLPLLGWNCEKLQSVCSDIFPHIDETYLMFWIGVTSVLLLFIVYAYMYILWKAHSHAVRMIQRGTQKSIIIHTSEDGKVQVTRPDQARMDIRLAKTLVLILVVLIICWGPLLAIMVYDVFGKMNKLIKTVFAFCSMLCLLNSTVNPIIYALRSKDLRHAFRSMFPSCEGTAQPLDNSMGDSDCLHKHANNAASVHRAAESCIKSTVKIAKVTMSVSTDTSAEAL", "assay": "[35S]GTPγS-binding assay, hCB1", "assay_type": "biochemical", "details": "NB = no binding"}, "TNF-α": {"system": "TNF-α", "assay": "Cytokine secretion into blood circulation in LPS injected mice, TNF-α", "assay_type": "in vivo, Balb/C female mice", "details": "2 mg/kg i.v., LPS 3 mg/kg i.p., plasma 90 minutes after LPS", "description": "(§1) Balb/C female mice (average body weight 20 g, Harlan, Israel) were injected i.v. at a volume dosage of 5 ml/kg with either vehicle or test compounds at a dose of 2 mg/kg. Each treatment group comprised at least 9 animals. Immediately after compound or control administration, the mice were injected i.p. with 3 mg/kg LPS (E. coli 055:B5, Calbiochem). Ninety minutes after LPS induction, blood samples were collected into heparanized test tubes. Plasma was separated by centrifugation (10,000 rpm for 5 minutes at RT) and stored at −20° C. until assayed. The level of the inflammatory mediator under study, IL-1β, IL-6, IL-10 or TNF-α, was assayed by ELISA techniques.\n(§2) The technique used to quantify the amount of a given protein in a liquid sample, either tissue culture supernatant or body fluid, is based on Enzyme Linked ImmunoSorbent Assay (ELISA) methodology. Either commercially available or established in house, the assay is based on the capture of the protein of interest by specific antibodies bound to the bottom of an ELISA plate well. Unbound material is washed away, the captured protein is then exposed to a secondary antibody generally labeled with horseradish peroxidase (HRP) or alkaline phosphatase (ALP). Again the unbound material is washed away, and the samples are then incubated with the appropriate substrate yielding a colorimetric reaction. The reaction is stopped and reading is performed in a spectrophotometer at the appropriate wavelength. Samples are tested at least in duplicate and the appropriate standard curve, consisting of serial dilutions of the recombinant target protein, is incorporated on each plate. The concentration of the protein in the sample is calculated from the standard curve.\n(§3) The results are expressed as percent inhibition of secretion, taking into account the maximal cytokine concentration in vehicle “treated” animals and the baseline level in naïve animals. […] Inhibition above 50% was considered highly significant."}, "IL-1β": {"system": "IL-1β", "assay": "Cytokine secretion into blood circulation in LPS injected mice, IL-1β", "assay_type": "in vivo, Balb/C female mice", "details": "2 mg/kg i.v., LPS 3 mg/kg i.p., plasma 90 minutes after LPS", "description": "as §1, §2, §3"}, "IL-6": {"system": "IL-6", "assay": "Cytokine secretion into blood circulation in LPS injected mice, IL-6", "assay_type": "in vivo, Balb/C female mice", "details": "2 mg/kg i.v., LPS 3 mg/kg i.p., plasma 90 minutes after LPS", "description": "as §1, §2, §3"}, "IL-10": {"system": "IL-10", "assay": "Cytokine secretion into blood circulation in LPS injected mice, IL-10", "assay_type": "in vivo, Balb/C female mice", "details": "2 mg/kg i.v., LPS 3 mg/kg i.p., plasma 90 minutes after LPS", "description": "as §1, §2, §3"}}}
{"smiles": "CCCCCCC(C)(C)c1cc(O)c2c(c1)OC1C(O)CCCCC21", "note": "(stereo not drawn) [Compound C7S-2, 2-(1,1-dimethylheptyl)-5,6,7,8,9,9a-hexahydro-4bH-10-oxa-benzo[α]azulen-4,9-diol]", "values": [{"measurement": "inhibition of writhing responses", "setting": "[1]; 0.075 mg/kg i.v., compared to vehicle", "result": 28, "unit": "%"}, {"measurement": "inhibition of writhing responses", "setting": "[1]; 0.1 mg/kg i.v.", "result": 74, "unit": "%"}, {"measurement": "inhibition of writhing responses", "setting": "[1]; 0.25 mg/kg i.m.", "result": 35, "unit": "%"}, {"measurement": "inhibition of writhing responses", "setting": "[1]; 0.5 mg/kg i.m.", "result": 90, "unit": "%"}, {"measurement": "inhibition of pain responses", "setting": "[1]; 0.5 mg/kg i.v.", "result": "totally eradicated pain responses"}, {"measurement": "inhibition of pain response", "setting": "[1]; 1 mg/kg i.m.", "result": "totally abrogated the pain response"}, {"measurement": "inhibition of writhing responses", "setting": "[1]; 10 mg/kg p.o.", "result": 58, "unit": "%"}, {"measurement": "inhibition of writhing responses", "setting": "[1]; 20 mg/kg p.o.", "result": 83, "unit": "%"}, {"measurement": "fold more potent than morphine", "setting": "[1]; IC50 in visceral pain, i.v.", "result": 12, "unit": "fold"}, {"measurement": "inhibition in vivo at 2 mg/kg", "setting": "[1]", "result": "> 90", "unit": "%"}, {"measurement": "IC50 in visceral pain", "setting": "[1]; i.m. administration, calculated", "result": "about 0.27 mg/kg"}, {"measurement": "IC50 in visceral pain", "setting": "[1]; i.v., estimated or calculated from dose range", "result": 0.09, "unit": "mg/kg"}, {"measurement": "IC50 in visceral pain", "setting": "[1]; p.o. administration, calculated", "result": "about 6.6 mg/kg"}, {"measurement": "IC50 in visceral pain", "setting": "[1]; subcutaneously, estimated", "result": "about 1 mg/kg"}, {"measurement": "Difference in Ear Thickness, Baseline, Mean", "setting": "[2]; 0.5 mg/kg IV", "result": "3.66 ×10^−2 mm"}, {"measurement": "Difference in Ear Thickness, Day 1, Mean", "setting": "[2]; 0.5 mg/kg IV", "result": "8.18 ×10^−2 mm"}, {"measurement": "Difference in Ear Thickness, Day 2, Mean", "setting": "[2]; 0.5 mg/kg IV", "result": "5.90 ×10^−2 mm"}, {"measurement": "decrease in ΔThickness, inhibition as compared to untreated animals", "setting": "[2]; 0.5 mg/kg i.v.", "result": 29, "unit": "%"}, {"measurement": "EC50", "setting": "Human CB1 Receptor", "result": 359, "unit": "nM"}, {"measurement": "Emax", "setting": "Human CB1 Receptor; upper plateau of curve", "result": 50, "unit": "%"}]}
{"smiles": "CCCCCCC(C)(C)c1cc(O)c2c3c(oc2c1)C(=O)CCC3(C)C", "note": "[Compound C6M-9, 7-(1,1-Dimethylheptyl)-9-hydroxy-1,1-dimethyl-2,3-dihydro-1H-dibenzofuran-4-one]", "values": [{"measurement": "inhibition in vivo at 2 mg/kg", "setting": "[1]", "result": 38, "unit": "%"}]}
{"smiles": "CCCCC(C)(C)c1cc(O)c2c(c1)OC1C2CCC(C)(C)C1O", "note": "(centres unmarked) [Compound C6S-7, 3-(1,1-dimethylpentyl)-7,7-dimethyl-5a,6,7,8,9,9a-hexahydro-dibenzofuran-1,6-diol]", "values": [{"measurement": "inhibition in vivo at 2 mg/kg", "setting": "[1]", "result": 40, "unit": "%"}]}
{"smiles": "CCCCC(C)(C)c1cc(O)c2c(c1)OC1CCCCC21", "note": "(centres unmarked) [Compound C6S-3, 3-(1,1-dimethylpentyl)-5a,6,7,8,9,9a-hexahydro-dibenzofuran-1-ol]", "values": [{"measurement": "Inhibition of cytokine secretion into blood circulation, TNF-α", "setting": "TNF-α", "result": 78, "unit": "%"}, {"measurement": "Inhibition of cytokine secretion into blood circulation, IL-1β", "setting": "IL-1β", "result": "NO (NO indicates that the compound tested did not significantly affect the level of cytokine in plasma of LPS injected mice and that its activity is comparable to vehicle, within ±20% from this control)"}, {"measurement": "Inhibition of cytokine secretion into blood circulation, IL-6", "setting": "IL-6", "result": "NO (NO indicates that the compound tested did not significantly affect the level of cytokine in plasma of LPS injected mice and that its activity is comparable to vehicle, within ±20% from this control)"}, {"measurement": "Inhibition of cytokine secretion into blood circulation, IL-10", "setting": "IL-10", "result": 79, "unit": "%"}, {"measurement": "Difference in Ear Thickness, Baseline, Mean", "setting": "[2]; 2 mg/kg IV", "result": "3.76 ×10^−2 mm"}, {"measurement": "Difference in Ear Thickness, Day 1, Mean", "setting": "[2]; 2 mg/kg IV", "result": "8.64 ×10^−2 mm"}, {"measurement": "Difference in Ear Thickness, Day 2, Mean", "setting": "[2]; 2 mg/kg IV", "result": "5.78 ×10^−2 mm"}, {"measurement": "decrease in ΔThickness, inhibition as compared to untreated animals", "setting": "[2]; 2 mg/kg i.v.", "result": 25, "unit": "%"}]}
{"smiles": "CCCCCCC(C)(C)c1cc(O)c2c(c1)OC1(C)CCCC21", "note": "(stereo not drawn) [Compound C5S-2, 6-(1,1-dimethylheptyl)-8a-methyl-2,3,3a,8a-tetrahydro-1H-8-oxa-cyclo-penta[α]inden-4-ol]", "values": [{"measurement": "Inhibition of cytokine secretion into blood circulation, TNF-α", "setting": "TNF-α", "result": 38, "unit": "%"}, {"measurement": "Inhibition of cytokine secretion into blood circulation, IL-1β", "setting": "IL-1β", "result": 53, "unit": "%"}, {"measurement": "Inhibition of cytokine secretion into blood circulation, IL-6", "setting": "IL-6", "result": "NO (NO indicates that the compound tested did not significantly affect the level of cytokine in plasma of LPS injected mice and that its activity is comparable to vehicle, within ±20% from this control)"}, {"measurement": "Percent Inhibition of Visceral Pain Writhing Responses", "setting": "[1]", "result": 72, "unit": "%"}, {"measurement": "Inhibition of cytokine secretion into blood circulation, IL-10", "setting": "IL-10", "result": 64, "unit": "%"}]}
{"smiles": "CCCCCCC(C)(C)c1cc(O)c2c(c1)OC1C=CCCC21", "note": "(centres unmarked) [Compound C6S-2, 3-(1,1-Dimethylheptyl)-5a,8,9,9a-tetrahydro-dibenzofuran-1-ol]", "values": [{"measurement": "Inhibition of cytokine secretion into blood circulation, TNF-α", "setting": "TNF-α", "result": "NO (NO indicates that the compound tested did not significantly affect the level of cytokine in plasma of LPS injected mice and that its activity is comparable to vehicle, within ±20% from this control)"}, {"measurement": "Inhibition of cytokine secretion into blood circulation, IL-1β", "setting": "IL-1β", "result": 56, "unit": "%"}, {"measurement": "Inhibition of cytokine secretion into blood circulation, IL-6", "setting": "IL-6", "result": "NO (NO indicates that the compound tested did not significantly affect the level of cytokine in plasma of LPS injected mice and that its activity is comparable to vehicle, within ±20% from this control)"}, {"measurement": "Inhibition of cytokine secretion into blood circulation, IL-10", "setting": "IL-10", "result": 68, "unit": "%"}]}
{"smiles": "CCCCC(C)(C)c1cc(O)c2c(c1)OC1(C)CCCC21", "note": "(stereo not drawn) [Compound C5S-1, 6-(1,1-dimethylpentyl)-8a-methyl-2,3,3a,8a-tetrahydro-1H-8-oxa-cyclopenta[α]inden-4-ol]", "values": [{"measurement": "Inhibition of cytokine secretion into blood circulation, TNF-α", "setting": "TNF-α", "result": 77, "unit": "%"}, {"measurement": "Inhibition of cytokine secretion into blood circulation, IL-1β", "setting": "IL-1β", "result": 41, "unit": "%"}, {"measurement": "Inhibition of cytokine secretion into blood circulation, IL-6", "setting": "IL-6", "result": 28, "unit": "%"}, {"measurement": "Percent Inhibition of Visceral Pain Writhing Responses", "setting": "[1]", "result": 41, "unit": "%"}, {"measurement": "Inhibition of cytokine secretion into blood circulation, IL-10", "setting": "IL-10", "result": 75, "unit": "%"}]}
